Experiments:
[1] = test system: endothelin (ET), isolated thoracic aorta of a rat; assay: Antagonistic activity of endothelin on the isolated aorta of a rat; parameters: species or system Wistar male rats
Procedure: The thoracic aorta is removed from Wistar male rats (approximately 350 g) (IFFA CREDO France) anaesthetized with pentobarbital (60 mg/kg IP) then exsanguinated. The aorta is rapidly put into a physiological solution at ambient temperature. A 1 to 2 mm ring without endothelium is put in an isolated organ bath containing 5 ml of the following physiological solution (composition in mM NaCl: 118.4; KCl: 4.7; MgSO4, 7H2 O: 1.2; CaCl2, 2H2 O: 2.5; KH2 PO4 : 1.2; NaHCO3 : 25; glucose: 10.1) the medium is maintained at 37° C. and oxygenated with a mixture of oxygen (95%) carbon dioxide (5%). The initial pressure imposed is 2 g, the rings are left at rest for 60 to 90 minutes. The reference contraction is caused by the addition of 2 successive concentrations of 3 μM of noradrenalin, left in contact for 15 minutes, followed by 3 washings, the second response serves as the reference contraction. After return to the base line, incubation is carried out for 15 minutes with a concentration of the product to be tested or the solvent then cumulative concentrations of endothelin are added every 5 minutes (concentrations of […]). The inhibition induced by the product is calculated as a % of the reduction relative to the reactivity of the control curves over 2 points: concentration of 10 and 30 nM of endothelin.

Endothelin A receptor = molecular target: T1, Endothelin A receptor (Rattus norvegicus, UniProt P26684); assay: Study of the affinity for the endothelin A receptor (125I endothelin displacement, rat heart ventricle membranes); format: binding; settings: rat heart (ventricles) membranes, 25° C., 60 minutes
T1 construct: A membrane preparation is prepared from the heart (ventricles) of a rat; from tissue; host or cells: rat heart ventricles (membrane preparation)
T1 sequence (P26684 21-426): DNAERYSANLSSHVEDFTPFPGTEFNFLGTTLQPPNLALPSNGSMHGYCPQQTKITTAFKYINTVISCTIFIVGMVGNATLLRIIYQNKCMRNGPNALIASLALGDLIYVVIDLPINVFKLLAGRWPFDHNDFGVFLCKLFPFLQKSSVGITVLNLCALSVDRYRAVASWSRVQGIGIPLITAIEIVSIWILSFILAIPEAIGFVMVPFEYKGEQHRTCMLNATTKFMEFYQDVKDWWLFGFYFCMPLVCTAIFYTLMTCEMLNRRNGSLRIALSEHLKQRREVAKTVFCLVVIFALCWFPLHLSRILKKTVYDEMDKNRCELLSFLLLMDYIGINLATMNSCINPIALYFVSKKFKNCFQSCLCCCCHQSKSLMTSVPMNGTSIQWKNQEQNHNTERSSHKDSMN
Procedure: 1) Study of the Affinity for the Endothelin a Receptor
A membrane preparation is prepared from the heart (ventricles) of a rat. The tissue is ground up in a POLYTRON in a 50 mM Tris buffer pH=7.4.
(§1) After 30 minutes at 25° C. (W.B.) the homogenate is centrifuged at 30,000 g for 15 minutes (2 centrifugations with intermediate take-up in the Tris buffer pH 7.4).
(§2) The pellets are suspended in an incubation buffer (25 mM Tris, 5 microg/ml pepstatin A, 3 microg/ml aprotinin, 0.1 mM PMSF, 3 mM EDTA, 1 mM EGTA pH 7.4).
(§3) 2 ml aliquoted fractions are distributed in hemolysis tubes and ^125 I endothelin (approx. 5,000 dpm/tube) and the product to be studied are added. (The product is first tested at 3×10 5M three times). When the tested product displaces more than 50% of the radioactivity specifically bound to the receptor, it is tested again according to a range of 7 concentrations in order to determine the concentration which inhibits by 50% the radioactivity specifically bound to the receptor. In this way the 50% inhibitory concentration is determined.
(§4) The non-specific bond is determined by the addition of endothelin at 10^-6 M (three times). After incubation at 25° C. for 60 minutes, replacing in a water bath at 0° C. for 5 minutes, filtration under reduced pressure and rinsing with Tris buffer pH 7.4, the radioactivity is counted in the presence of scintillating Triton.
(§5) The result is expressed directly as the 50% inhibitory concentration (IC50), that is to say as the concentration of product studied, expressed in nM, necessary to displace 50% of the specific radioactivity fixed to the receptor studied.

endothelin (ET1) [2] = assay: Test for antagonistic activity of endothelin in the demedullated rat; format: in vivo, male Sprague Dawley rats
Procedure: 3) Test for Antagonistic Activity of Endothelin in the Demedullated Rat
Male Sprague Dawley rats (250 to 350 g) are anaesthetized (sodium pentobarbital 60 mg/kg injected by intraperitoneal route). The animal is placed under assisted respiration and a bilateral section of the vagus nerves is carried out. The rat is then demedullated.
The average arterial pressure is recorded with a heparin catheter (PE50) introduced into the carotid of the animal, and connected via a pressure sensor and an amplifier to a recorder (Gould, Pressure Processor). A catheter is introduced into the pudendal vein in order to allow injection of the molecules to be studied. After a stabilization period (about 15 minutes), the product or the solvent is injected 10 minutes before a range of increasing doses of endothelin which are injected every 2 minutes (0.1-0.3-1-3-10 μg/kg).
The anatagonistic activity of the products is estimated by the percentage inhibition in the increase in pressure induced by the endothelin at doses of 3 and 10 μg/kg.

endothelin (ET1) [3] = assay: Protection against sudden death induced by IV injection of endothelin (ET1) in a female mouse; format: in vivo
Procedure: 5) Protection Against Sudden Death Induced by IV Injection of Endothelin (ET1) in a Female Mouse
A lethal dose of ET1 (10 nmole/kg IV) is injected into female mice. The solvent or the molecules to be studied are injected 10 minutes before (i.v. route) or 30 minutes before (oral route) the endothelin.
The protection is calculated in the form of ED50 (50% effective dose, or the dose capable of reducing the mortality by 50% relative to the control group).

Endothelin B receptor = molecular target: T2, Endothelin B receptor (Rattus norvegicus, UniProt P21451); assay: Study of the affinity for the endothelin B receptor (125I endothelin displacement, rat cortex plus cerebellum membranes); format: binding; settings: rat rear cortex plus cerebellum membranes, 25° C., 60 minutes
T2 construct: A membrane preparation is prepared from the rear cortex plus the cerebellum of a rat; from tissue; host or cells: rat rear cortex plus cerebellum (membrane preparation)
T2 sequence (P21451 27-442): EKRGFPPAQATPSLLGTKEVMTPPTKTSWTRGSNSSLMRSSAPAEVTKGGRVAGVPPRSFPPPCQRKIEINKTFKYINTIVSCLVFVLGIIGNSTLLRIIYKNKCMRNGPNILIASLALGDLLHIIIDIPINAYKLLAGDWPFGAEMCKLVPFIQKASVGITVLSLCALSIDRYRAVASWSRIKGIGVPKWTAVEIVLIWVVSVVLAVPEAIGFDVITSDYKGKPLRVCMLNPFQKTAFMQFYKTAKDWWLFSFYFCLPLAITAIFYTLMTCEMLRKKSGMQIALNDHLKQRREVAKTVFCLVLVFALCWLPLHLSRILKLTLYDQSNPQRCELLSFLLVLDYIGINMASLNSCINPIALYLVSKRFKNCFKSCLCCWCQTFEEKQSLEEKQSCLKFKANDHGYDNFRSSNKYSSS
Procedure: 2) Study of the Affinity for the Endothelin B Receptor
A membrane preparation is prepared from the rear cortex plus the cerebellum of a rat. The tissue is ground up in a POLYTRON in a 50 mM Tris buffer pH=7.4.
as §1, §2
as §3, with “3×10^-5 M” for “3×10 5M”
as §4, §5

[4] = 10 min, IV, 10 minutes before ET1 10 nmole/kg IV
[5] = 0.5 h, PO, 30 minutes before ET1 10 nmole/kg IV

Row | Compound | % inhibition of contraction ([1]; antagonist 0.1 μM, ET 30 nM) [%] | % inhibition of contraction ([1]; antagonist 0.1 μM, ET 10 Nm) [%] | % inhibition of contraction ([1]; antagonist 1.0 μM, ET 30 nM) [%] | % inhibition of contraction ([1]; antagonist 1.0 μM, ET 10 Nm) [%] | IC50 (Endothelin A receptor) [nM] | % inhibition of vasoconstriction (endothelin (ET1) [2]; dose 0.3 mg/kg, ET1 10 μg/kg) [%] | % inhibition of vasoconstriction (endothelin (ET1) [2]; dose 0.3 mg/kg, ET1 (3 μg/kg)) [%] | % inhibition of vasoconstriction (endothelin (ET1) [2]; dose 1.0 mg/kg, ET1 10 μg/kg) [%] | % inhibition of vasoconstriction (endothelin (ET1) [2]; dose 1.0 mg/kg, ET1 (3 μg/kg)) [%] | % inhibition of vasoconstriction (endothelin (ET1) [2]; dose 3.0 mg/kg, ET1 10 μg/kg) [%] | % inhibition of vasoconstriction (endothelin (ET1) [2]; dose 3.0 mg/kg, ET1 (3 μg/kg)) [%] | ED50 (endothelin (ET1) [3]; [4]) [mg/kg] | ED50 (endothelin (ET1) [3]; [5]) [mg/kg] | IC50 (Endothelin B receptor) [nM] | % inhibition of vasoconstriction (endothelin (ET1) [2]; dose 10.0 mg/kg, ET1 10 μg/kg) [%] | % inhibition of vasoconstriction (endothelin (ET1) [2]; dose 10.0 mg/kg, ET1 (3 μg/kg)) [%]
1 | CCCc1nc(SC2CCC(CC(=O)O)CC2)c(C(=O)O)n1Cc1cc2c(cc1Cl)OCO2 (centres unmarked) [Example 2, 4-((4-(carboxymethyl)cyclohexyl)thio)-1-((6-chloro-1,3-benzodioxol-5-yl)methyl)-2-propyl-1H-imidazole-5-carboxylic acid] | 61 | 71 | 100 | 94 | 1.1 | 39 | 56 | 65 | 60 | 77 | 63 | 0.8 | 1.1 | 194 | – | –
2 | O=C(O)CCCCCSc1nc(C2OCCO2)n(Cc2cc3c(cc2Cl)OCO3)c1C(=O)O [Example 3] | – | – | – | – | – | – | – | 53 | 52 | 71 | 64 | 5 | 24.1 | – | – | –
3 | COCc1nc(SCCCCCC(=O)O)c(C(=O)O)n1Cc1cc2c(cc1Cl)OCO2 [Example 4] | – | – | – | – | – | – | – | – | – | – | – | – | – | – | 38 | 49
4 | CCCc1nc(SCCCCCC(=O)O)c(C(=O)O)n1Cc1cc2c(cc1Cl)OCO2 [Example 6] | 99 | 96 | 98 | 96 | 1.2 | – | – | 33 | 42 | 37 | 49 | 3.9 | – | 293 | – | –
5 | CCCc1nc(SCCCCC(=O)O)c(C(=O)O)n1Cc1cc2c(cc1Cl)OCO2 [Example 8, 4-((4-carboxybutyl)thio)-1-((6-chloro-1,3-benzodioxol-5-yl)methyl)-2-(propyl)-1H-imidazole-5-carboxylic acid] | 97 | 97 | 96 | 95 | 1.9 | – | – | 22 | 40 | 47 | 57 | 3.5 | – | 600 | – | –
6 | CCCc1nc(SC2CCC(=CC(=O)O)CC2)c(C(=O)O)n1Cc1cc2c(cc1Cl)OCO2 (centres unmarked) [Example 10, 4-((4-(carboxymethylene)cyclohexyl)thio)-1-((6-chloro 1,3-benzodioxol-5-yl)methyl)-2-propyl-1H-imidazole-5-carboxylic acid] | – | – | – | – | 1.2 | – | – | 39 | 59 | 61 | 58 | 3.3 | 3.2 | 210 | – | –
7 | CCCCc1nc(SCCCCCC(=O)O)c(C(=O)O)n1Cc1cc2c(cc1Cl)OCO2 [Example 12, 2-butyl 4-((5-carboxypentyl)thio) 1-((6-chloro 1,3-benzodioxol-5-yl)methyl)-1H-imidazole-5-carboxylic acid] | 65 | 88 | 98 | 98 | 1.1 | – | – | – | – | – | – | – | – | – | 35 | 30
